Test results published in US20260077191A1, “COMBINATION THERAPY FOR THE TREATMENT OF DEPRESSION” (Flow Neuroscience, Inc., priority 2022, published 2026).

Legend:
[1] = tested on: serotonin reuptake and norepinephrine reuptake; conditions: cited from earlier work; for selectivity for serotonin reuptake inhibition than norepinephrine reuptake inhibition: higher selectivity for serotonin reuptake
[2] = tested on: Major depressive disorder (MDD); assay: weekly MADRS-s self-assessment of MDD subjects on a pharmacologic antidepressant agent combined with tDCS sessions (Example 2); format: in vivo, human; conditions: each agent combined with tDCS; Week 6; change in MADRS-s, FIG. 7
Excerpt: In this example, a subject completed a MADRS-s questionnaire at baseline (defined as a time preceding initiation of neurostimulation) to determine a starting measurement to be used in an assessment of treatment efficacy. Ideally, baseline measures were made close to the period of time in which the first neurostimulation session began. The subject completed the same MADRS-s questionnaire weekly during a period of ongoing treatment comprising administering of a prescribed pharmacologic antidepressant agent and delivery to the subject of plurality tDCS sessions. […]
Subjects were provided with a tDCS neurostimulation device, instructions of use, and an program capable of being run on a handheld electronic device which provided instructions, recorded responses to various questionnaires completed by the subject, and recorded information regarding the tDCS stimulation sessions completed by the user. Amongst the tDCS stimulation session information recorded was the date of each session completed, the time of day of each completed session, the duration of each completed session, the intensity of electrical stimulation in each session, the latency from the most recently completed session to the previous session.
Subjects completed a MADSR-s assessment at baseline prior to their first tDCS session. […] If the dosage had changed, the subject recorded the extent of the change. […]

SMILES | potency for norepinephrine reuptake inhibition than serotonin reuptake inhibition [1] | selectivity for serotonin reuptake inhibition than norepinephrine reuptake inhibition [1] | effectiveness in improving symptoms of depression compared to fluoxetine [2]
CCN(CC)C(=O)[C@@]1(c2ccccc2)C[C@H]1CN [Levomilnacipran] | 2 fold |  | 
CCN(CC)C(=O)C1(c2ccccc2)CC1CN (stereo not drawn) [Milnacipran] | 3 fold |  | 
CN(C)CC(c1ccc(O)cc1)C1(O)CCCCC1 (stereo not drawn) [desvenlafaxine] |  | 10 fold | 
CNCC[C@H](Oc1cccc2ccccc12)c1cccs1 [duloxetine] |  | 10 fold | 
COc1ccc(C(CN(C)C)C2(O)CCCCC2)cc1 (stereo not drawn) [Venlafaxine] |  |  | approaching significance
CN[C@H]1CC[C@@H](c2ccc(Cl)c(Cl)c2)c2ccccc21 [Sertraline] |  |  | significantly better
